Converted amounts (≈) assume the structure as drawn. Read-outs that look alike come from different tables or passages of the source.
Columns and labels:
MRSA ATCC BAA-44 [1] = assay: Biofilm dispersion assay (crystal violet, pre-formed biofilm); assay type: cell-based; details: Staphylococcus aureus, Table 2
MRSA ATCC BAA-44 [2] = assay: Broth microdilution MIC determination; assay type: cell-based, Staphylococcus aureus; details: for MIC: Staphylococcus aureus
MRSA Strain 1770 = assay: Biofilm inhibition assay (crystal violet); assay type: cell-based, Staphylococcus aureus; details: for inhibition at 5 µM / inhibition at 40 µM: Staphylococcus aureus, read-out: % Biofilm Inhibition (5/40 μM)
Procedure: (§1) General Information. Methicillin-resistant Staphylococcus aureus (MRSA) strains were obtained from the Laboratory of Professor Christian Melander (NCSU) ATCC (33591, BAA 44, BAA 1685, BAA 1770, BAA 43 300) and colonies were grown on solid media as instructed. Mueller-Hinton broth (MHB, 211443-BD), tryptic soy broth (TSB, Remel: R455052) and D-glucose (CAS: 492-62-6) were purchased from Fisher Scientific. Tryptic soy agar (TSA, cat. #22091) and Linezolid (cat. # P70014) were purchased from Sigma-Aldrich. Bacteria for biofilm inhibition and dispersion assays were cultured overnight in TSBG (tryptic soy broth with 0.5% glucose supplement). All assays were run in duplicate and repeated at least two separate times for MIC assays and at least four separate times for biofilm inhibition and dispersion assays. All compounds were dissolved molecular biology grade DMSO as 100 mM stock solutions and further diluted to 10 and 1 mM stock solutions as needed. Optical densities were measured using a Thermo Scientific Genesys 20 spectrophotometer. Data for biofilm inhibition and dispersion assays was collected using a BioTek ELx808 Microplate Reader. All graphs were generated and analyzed using GraphPad Prism 7.
(§2) Biofilm Inhibition Assay. Studies were performed using the standard method described in S. A. Rogers and C. Melander, Angew Chem Int Ed, 2008, 47, 5229-5231. Briefly, biofilm inhibition assays were performed by taking an overnight culture of bacterial strain and subculturing it at an OD600 of 0.01 into the necessary growth liquid medium (LB for A. baumannii, LBNS for P. aeruginosa, Stainer-Scholte medium that was supplemented with 10 μL/mL of 100× nutrient complex for B. bronchiseptica and TSB w/0.3% glucose for S. aureus) for the strain. The compound being tested was then added at a predetermined concentration and then aliquoted (100 μL) into the wells of a 96-well PVC microtiter plate (wells not used for samples are filled with 100 μL of de-ionized water). Plates were then wrapped in GLAD Press n' Seal and incubated under stationary conditions at 37° C. After 24 hours, the media was discarded from the wells and the plates were washed thoroughly with tap water. Plates were then stained with 100 μL of 0.1% solution of crystal violet (CV) and then incubated at an ambient temperature for 30 minutes. Sample plates were then washed with tap water again and the remaining stain was solubilized with 200 μL of 95% ethanol. Biofilm inhibition was quantitated by measuring the OD540 for each well by transferring 125 μL of the solubilized CV stain into a polystyrene microtiter dish for analysis. Biofilm inhibition was quantified by measuring the OD540 of each well and calculated as a percentage of the control (no compound); a negative control lane wherein no biofilm was formed served as a background and was subtracted out.
(§3) Percent inhibition was then plotted against concentration in Prism 7. Each of the four experiments were plotted separately and analyzed by a normalized nonlinear regression. The IC50 values reported represent an arithmetic mean of the four IC50 values. Biofilm data represent four separate experiments, with each experiment performed in duplicate (average of 8 data points for each concentration tested, unless otherwise noted)

MRSA ATCC BAA-44 [3] = assay: Biofilm inhibition assay (crystal violet); assay type: cell-based, Staphylococcus aureus; details: for IC50: MRSA ATCC BAA-44; for inhibition at 5 µM: MRSA ATCC BAA 44; for dose dependence of biofilm inhibition (in words): relative to MIC
Procedure: as §1, §2, §3

MRSA Strain 1685 = assay: Biofilm inhibition assay (crystal violet); assay type: cell-based; details: Staphylococcus aureus, read-out: % Biofilm Inhibition (5/40 μM)
Procedure: as §1, §2, §3

MRSA Strain 43300 = assay: Biofilm inhibition assay (crystal violet); assay type: cell-based; details: Staphylococcus aureus, read-out: % Biofilm Inhibition (5/40 μM)
Procedure: as §1, §2, §3

[4] = MRSA ATCC BAA 44, Table 2, read-out: MIC
[5] = MRSA ATCC BAA-44, Table 1, read-out: Antimicrobial Activity MIC

Row | Compound | inhibition at 40 µM (MRSA ATCC BAA-44 [1]) | MIC (MRSA ATCC BAA-44 [2]; MRSA ATCC BAA-44, read-out: MIC) | MIC (MRSA ATCC BAA-44 [2]; [4]) | MIC (MRSA ATCC BAA-44 [2]; [5]) | inhibition at 5 µM (MRSA Strain 1770) | inhibition at 40 µM (MRSA Strain 1770) | IC50 (MRSA ATCC BAA-44 [3]) | inhibition at 5 µM (MRSA ATCC BAA-44 [3]; Staphylococcus aureus) | IC50 (MRSA ATCC BAA-44 [3]; Staphylococcus aureus) | dose dependence of biofilm inhibition (in words) (MRSA ATCC BAA-44 [3]) | inhibition at 5 µM (MRSA Strain 1685) | inhibition at 40 µM (MRSA Strain 1685) | inhibition at 5 µM (MRSA Strain 43300) | inhibition at 40 µM (MRSA Strain 43300) | fold enhancement of the MIC (MRSA ATCC BAA-44 [2]; benzyl side chain (2) versus n-butyl side chain (1)) | biofilm inhibition activity (in words) (MRSA Strain 1770)
1 | CCCCC(Cl)(Cl)C1NC(=O)/C(=C/c2ccc(C(F)(F)F)cc2)O1 (centres unmarked) [Compound 1, (Z)-2-(1,1-dichloropentyl)-5-(4-(trifluoromethyl)benzylidene)oxazolidin-4-one] | 87% | 12000 µg/mL (≈ 31400 µM) | 12 µg/mL (≈ 31.4 µM) | 12 µg/mL (≈ 31.4 µM) | 49% | 66% | 1000 nM | 89% | 780 nM | dose-dependent biofilm inhibition at concentrations well below their MIC | 45% | 66% | 59% | 54% | – | –
2 | O=C1NC(C(Cl)(Cl)Cc2ccccc2)O/C1=C\c1ccc(C(F)(F)F)cc1 (centres unmarked) [Compound 2, (Z)-2-(1,1-dichloro-2-phenylethyl)-5-(4-(trifluoromethyl)benzylidene)oxazolidin-4-one] | 69% | – | 6 µg/mL (≈ 14.4 µM) | 6 µg/mL (≈ 14.4 µM) | 3% | -16% | 1400 nM | 82% | 1200 nM | dose-dependent biofilm inhibition at concentrations well below their MIC | 19% | 17% | 41% | 63% | 2 fold | virtually no activity
